Key:
[1] = PAMPA
D1 receptor = D1 receptor (Homo sapiens (Human), UniProt P21728); settings: cited from earlier work
D4 receptor = D4 receptor (Homo sapiens (Human), UniProt P21917); settings: cited from earlier work
D5 receptor = D5 receptor (Homo sapiens (Human), UniProt P21918); settings: cited from earlier work
5-HT2a receptor = 5-HT2a receptor (Homo sapiens (Human), UniProt P28223); settings: cited from earlier work
[2] = system: serotonin receptor subtypes; settings: cited from earlier work
[3] = system: alpha-adrenergic receptor subtypes; settings: cited from earlier work
[4] = system: histamine receptor subtypes; settings: cited from earlier work
muscarinic receptors = settings: cited from earlier work
sigma sites = settings: cited from earlier work
[5] = 2014 study, 30 psychiatric drugs; cited from earlier work
in vitro = settings: PAMPA
dopamine D2 receptors [6] = target: T1, dopamine D2 receptors (Homo sapiens (Human), UniProt P14416); test: Dopamine D2 receptor cell-based assay (calcium fluorescence, dopamine at EC80)
Description: Dopamine D2 receptor cells were seeded in a half a black, clear-bottomed 96 well plate. At a density of 15,000 cells/well to a volume of 25 μL and were left to incubate overnight. Calcium 5 dye in HEPES buffered HBSS (Hanks' balanced salt solution) was prepared and 10 μL was added to each well and the mixture was left to sit at 37° C. for 1 hour. After equilibration, 5 μL of the test compound and controls were added to the wells and incubated at room temperature for 10 minutes.

dopamine D2 receptors [7] = target: T1, dopamine D2 receptors; test: Dopamine D2 receptor membrane preparation, 3H spiperone binding; settings: membrane based assay, 0.1 nM 3H spiperone
Description: Radioactivity was measured using a Packard Topcount.

α2 (non-selective) = test: Reference ligand displacement, α2 (non-selective); type: binding; settings: α-2A (non-selective); reference ligand prazosin
Description: (§1) The ability of Compound 102 and 103 to bind α2 (non-selective), α2A, α2B, α2C, 5-HT2A (agonist), 5-HT2A (antagonist), D2L, D2S, and D3 was measured at concentrations ranging from 10×10^−5 to 10×10^−9 M and measuring displacement of reference ligands (prazosin for α2 (non-selective), yohimbine for α2A, α2B and α2C, DOI ([2,5-dimethoxy-4-iodophenyl]-2-aminopropane) for 5-HT2A (agonist), ketanserine for 5-HT2A (antagonist), butaclamol for D2L, 7-OH-DPAT for D2S, and (+) blutaclamol for D3). bound to the respective isolated receptor.

α-2A(h) = α-2A(h) (Homo sapiens (Human), UniProt P08913); test: Reference ligand displacement, α2A; type: binding; settings: yohimbine
Description: as §1

α-2B(h) = α-2B(h) (Homo sapiens (Human), UniProt P18089); test: Reference ligand displacement, α2B; type: binding; settings: yohimbine
Description: as §1

α-2C(h) = α-2C(h) (Homo sapiens (Human), UniProt P18825); test: Reference ligand displacement, α2C; type: binding; settings: yohimbine
Description: as §1

5-HT2a (agonist) = 5-HT2a (agonist) (Homo sapiens (Human), UniProt P28223); test: Reference ligand displacement, 5-HT2A (agonist); type: binding; settings: DOI
Description: as §1

5-HT2a (antagonist) = 5-HT2a (antagonist) (Homo sapiens (Human), UniProt P28223); test: Reference ligand displacement, 5-HT2A (antagonist); type: binding; settings: ketanserine
Description: as §1

5-HT7 = 5-HT7 (Homo sapiens (Human), UniProt P34969); test: Reference ligand displacement, 5-HT7; type: binding
D2L = D2L (Homo sapiens (Human), UniProt P14416); test: Reference ligand displacement, D2L; type: binding; settings: butaclamol
Description: as §1

D2S = D2S (Homo sapiens (Human), UniProt P14416); test: Reference ligand displacement, D2S; type: binding; settings: 7-OH-DPAT
Description: as §1

D3 = D3 (Homo sapiens (Human), UniProt P35462); test: Reference ligand displacement, D3; type: binding; settings: (+) butaclamol
Description: as §1

PCP-treated rats = test: Novel Object Recognition (NOR) assay, sub-chronic PCP; type: in vivo; settings: PO; for difference between novel and familiar object exploration time: 3 hours post-dose, all doses save one; for known object exploration behavior in rats treated with PCP: compared with untreated rats, amisulpride and risperidone
Description: Efficacy of Compounds 102 and 103 was evaluated in rats in a Novel Object Recognition (NOR) assay, a well-established model recapitulating cognitive and negative aspects of the PANSS scale of schizophrenia. In this assay, animals were treated for several weeks with a low dose of phencyclidine (PCP) to impair the ability of the rat to discern between novel and familiar objects. Typically rats, like humans, would spend more time exploring a novel object than a familiar one.
Rats (n=10/group) were dosed with 2 mg/kg intraperitoneal twice a day (i.p., b.i.d.) for seven days followed by 7 days drug free. […] Novel object exploration time was measured for the test subjects from a sub-chronic PCP NOR study in rats (n=10/group). The differences in exploration time between novel (Tnovel¬) and familiar (Tfamliar) objects are depicted in FIG. 1A (*: p<0.05; and *: p<0.01).

[8] = system: rats dosed with amphetamine; test: Amphetamine-induced Locomotor Activity (LMA) assay; type: in vivo; settings: 30 mg/kg orally, 6 hours post dosing, total ambulatory distance over 1 hour
Description: Efficacy of Compounds 102 and 103 was studied in rats in an amphetamine-induced Locomotor Activity (LMA) assay, a measure of positive aspects of the PANSS scale. In the LMA assay rats were dosed with amphetamine (Amp, 1 mg/kg, s.c.), causing excessive movement, in a cage with sensors that monitored how far each rat moved.
Distance moved, over the course of an hour, was measured 6 hours post dosing for Compounds 102 and 103 and amisulpride-risperidone was dosed 1 hour prior to measurement. The endpoint of this study was total ambulatory distance (the distance traveled by each animal in the cage). Total ambulatory distance data from this amphetamine induced LMA study are summarized in FIG. 2 (*: p<0.01; *: p<0.05).

5-HT2a (agonist), sequence (P28223 whole entry, species assumed): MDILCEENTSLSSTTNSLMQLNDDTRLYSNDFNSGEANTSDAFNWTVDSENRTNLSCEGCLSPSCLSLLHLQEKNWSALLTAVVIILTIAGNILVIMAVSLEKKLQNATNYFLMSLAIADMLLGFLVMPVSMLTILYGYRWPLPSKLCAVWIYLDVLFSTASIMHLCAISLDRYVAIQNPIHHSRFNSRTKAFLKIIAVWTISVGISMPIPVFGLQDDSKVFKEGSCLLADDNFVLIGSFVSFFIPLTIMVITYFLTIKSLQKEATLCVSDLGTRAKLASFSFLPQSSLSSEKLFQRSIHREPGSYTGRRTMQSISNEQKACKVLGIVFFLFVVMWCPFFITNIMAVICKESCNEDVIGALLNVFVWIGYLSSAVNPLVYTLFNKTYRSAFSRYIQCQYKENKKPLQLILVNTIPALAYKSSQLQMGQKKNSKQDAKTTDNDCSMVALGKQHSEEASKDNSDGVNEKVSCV
5-HT2a (antagonist), sequence (P28223 whole entry, species assumed): as above
D2L, sequence (P14416 whole entry): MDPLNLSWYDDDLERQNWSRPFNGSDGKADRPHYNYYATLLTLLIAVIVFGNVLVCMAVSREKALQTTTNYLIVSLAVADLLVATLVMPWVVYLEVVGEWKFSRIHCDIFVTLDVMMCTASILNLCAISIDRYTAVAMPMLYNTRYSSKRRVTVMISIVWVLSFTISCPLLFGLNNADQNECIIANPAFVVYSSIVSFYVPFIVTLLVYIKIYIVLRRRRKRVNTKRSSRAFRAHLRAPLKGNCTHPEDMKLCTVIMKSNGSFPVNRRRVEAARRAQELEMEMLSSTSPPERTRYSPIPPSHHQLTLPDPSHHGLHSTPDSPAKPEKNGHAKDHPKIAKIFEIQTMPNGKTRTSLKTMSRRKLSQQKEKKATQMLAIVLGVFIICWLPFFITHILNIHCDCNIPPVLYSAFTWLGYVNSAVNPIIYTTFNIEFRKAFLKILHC
D2S, sequence (P14416 other isoform, or with tags, fused parts or gaps): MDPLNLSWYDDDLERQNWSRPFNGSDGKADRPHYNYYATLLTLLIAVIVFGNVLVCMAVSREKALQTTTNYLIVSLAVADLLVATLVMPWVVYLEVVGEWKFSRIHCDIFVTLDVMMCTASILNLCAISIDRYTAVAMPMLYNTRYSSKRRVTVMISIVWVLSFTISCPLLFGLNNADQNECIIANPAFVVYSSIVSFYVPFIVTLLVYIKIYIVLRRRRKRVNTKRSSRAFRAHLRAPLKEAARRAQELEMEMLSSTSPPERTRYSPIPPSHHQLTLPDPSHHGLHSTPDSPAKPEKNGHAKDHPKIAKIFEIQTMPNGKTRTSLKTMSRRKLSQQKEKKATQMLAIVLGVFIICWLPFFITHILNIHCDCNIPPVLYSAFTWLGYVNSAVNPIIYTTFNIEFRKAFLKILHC
D3, sequence (P35462 whole entry): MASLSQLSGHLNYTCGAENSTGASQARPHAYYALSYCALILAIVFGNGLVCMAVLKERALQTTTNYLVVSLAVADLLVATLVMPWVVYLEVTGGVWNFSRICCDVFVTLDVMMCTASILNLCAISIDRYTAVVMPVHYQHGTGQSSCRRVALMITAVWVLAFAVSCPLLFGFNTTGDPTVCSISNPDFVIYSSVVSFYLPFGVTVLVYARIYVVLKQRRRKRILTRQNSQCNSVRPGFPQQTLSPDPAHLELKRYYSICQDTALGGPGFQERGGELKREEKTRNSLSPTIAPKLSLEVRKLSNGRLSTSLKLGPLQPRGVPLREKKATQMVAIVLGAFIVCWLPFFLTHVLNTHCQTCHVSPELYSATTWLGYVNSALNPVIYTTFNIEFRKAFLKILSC
α-2A(h), sequence (P08913 whole entry): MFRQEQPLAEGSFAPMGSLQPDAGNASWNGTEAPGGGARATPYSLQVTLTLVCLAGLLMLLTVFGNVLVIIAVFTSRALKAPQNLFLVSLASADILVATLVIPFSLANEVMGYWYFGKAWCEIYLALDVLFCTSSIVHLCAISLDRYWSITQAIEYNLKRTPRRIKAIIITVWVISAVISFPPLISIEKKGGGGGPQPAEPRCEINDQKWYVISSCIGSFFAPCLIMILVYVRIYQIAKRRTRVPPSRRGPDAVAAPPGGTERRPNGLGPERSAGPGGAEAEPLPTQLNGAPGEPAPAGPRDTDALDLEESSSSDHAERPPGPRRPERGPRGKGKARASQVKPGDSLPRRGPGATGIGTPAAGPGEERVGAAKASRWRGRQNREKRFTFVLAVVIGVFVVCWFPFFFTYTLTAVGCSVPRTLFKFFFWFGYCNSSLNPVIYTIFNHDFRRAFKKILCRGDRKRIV
T1 sequence (P14416 whole entry): as the sequence (P14416 whole entry) above
5-HT7, sequence (P34969 whole entry, species assumed): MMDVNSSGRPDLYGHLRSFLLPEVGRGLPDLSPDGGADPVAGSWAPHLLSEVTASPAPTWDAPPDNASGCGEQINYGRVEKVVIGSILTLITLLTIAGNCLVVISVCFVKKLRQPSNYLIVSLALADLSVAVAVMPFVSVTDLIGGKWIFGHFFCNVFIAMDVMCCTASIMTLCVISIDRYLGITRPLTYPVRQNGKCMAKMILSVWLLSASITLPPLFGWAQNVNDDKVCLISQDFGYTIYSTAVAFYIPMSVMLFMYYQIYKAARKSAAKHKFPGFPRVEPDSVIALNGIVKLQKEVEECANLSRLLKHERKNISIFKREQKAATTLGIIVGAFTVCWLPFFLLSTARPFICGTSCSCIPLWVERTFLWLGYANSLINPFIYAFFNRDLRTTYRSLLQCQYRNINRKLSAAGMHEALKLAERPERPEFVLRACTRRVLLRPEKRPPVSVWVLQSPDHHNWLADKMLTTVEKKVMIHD
α-2B(h), sequence (P18089 whole entry): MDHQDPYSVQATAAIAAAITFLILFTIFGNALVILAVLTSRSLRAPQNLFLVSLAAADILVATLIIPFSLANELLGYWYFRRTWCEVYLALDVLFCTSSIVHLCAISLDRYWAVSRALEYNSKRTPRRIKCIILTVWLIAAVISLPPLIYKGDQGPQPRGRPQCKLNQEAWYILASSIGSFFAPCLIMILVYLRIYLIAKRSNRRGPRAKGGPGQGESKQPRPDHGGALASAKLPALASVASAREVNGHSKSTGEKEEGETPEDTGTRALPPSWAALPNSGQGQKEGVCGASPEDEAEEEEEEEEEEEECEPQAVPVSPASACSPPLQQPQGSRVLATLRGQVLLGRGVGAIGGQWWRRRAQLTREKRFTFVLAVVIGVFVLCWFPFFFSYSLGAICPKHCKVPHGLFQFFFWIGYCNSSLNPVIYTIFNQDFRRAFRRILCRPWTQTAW
α-2C(h), sequence (P18825 whole entry): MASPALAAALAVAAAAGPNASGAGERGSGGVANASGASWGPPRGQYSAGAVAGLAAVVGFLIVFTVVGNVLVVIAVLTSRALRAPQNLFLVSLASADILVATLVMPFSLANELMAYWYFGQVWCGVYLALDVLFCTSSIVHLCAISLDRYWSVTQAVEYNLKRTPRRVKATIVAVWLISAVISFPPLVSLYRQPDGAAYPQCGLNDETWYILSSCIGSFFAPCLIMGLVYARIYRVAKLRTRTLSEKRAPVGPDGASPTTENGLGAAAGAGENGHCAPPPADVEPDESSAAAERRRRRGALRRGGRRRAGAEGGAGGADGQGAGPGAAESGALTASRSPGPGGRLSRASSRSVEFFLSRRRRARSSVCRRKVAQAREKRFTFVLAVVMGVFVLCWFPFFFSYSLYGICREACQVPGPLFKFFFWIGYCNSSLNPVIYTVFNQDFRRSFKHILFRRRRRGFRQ
5-HT2a receptor, sequence (P28223 whole entry): as the sequence (P28223 whole entry, species assumed) above

Compound	Papp (in vitro; pH 5) [×10⁻⁶ cm/s]	Papp (in vitro; pH 7.4) [×10⁻⁶ cm/s]	Permeability (cm/s) pH 7.4 [1]	IC50 (α2 (non-selective)) [nM]	Ki (α2 (non-selective)) [nM]	IC50 (5-HT2a (agonist)) [nM]	Ki (5-HT2a (agonist)) [nM]	IC50 (5-HT2a (antagonist)) [nM]	Ki (5-HT2a (antagonist)) [nM]	IC50 (D2L) [nM]	Ki (D2L) [nM]	IC50 (D2S) [nM]	Ki (D2S) [nM]	IC50 (D3) [nM]	Ki (D3) [nM]	difference between novel and familiar object exploration time (PCP-treated rats)	known object exploration behavior in rats treated with PCP (PCP-treated rats)	normalized amphetamine hyperactivity compared to amisulpride [8]	also measured
CCN1CCCC1CNC(=O)c1cc(S(=O)(=O)CC)c(N)cc1OC (stereo not shown) [Amisulpride, 4-amino-N-(((1-ethyl-2-pyrrolidinyl)methyl)-5-(ethylsulfonyl))-2-methoxybenzamide]	0.00024	–	2.4 × 10^−11 cm/s	–	–	–	–	–	–	–	–	–	–	–	–	–	–	–	affinity for D1 receptor subtype (D1 receptor): without any affinity; affinity for D4 receptor subtype (D4 receptor): without any affinity; affinity for D5 receptor subtype (D5 receptor): without any affinity; activity at the 5-HT2a receptor (5-HT2a receptor): not noted to have any activity; affinity for serotonin receptor subtypes [2]: low affinity; affinity for alpha-adrenergic receptor subtypes [3]: low affinity; affinity for histamine receptor subtypes [4]: low affinity; affinity for muscarinic receptors (muscarinic receptors): low affinity; affinity for sigma sites (sigma sites): low affinity; passive diffusion across a PAMPA membrane (Pe) [5]: lowest of 30 psychiatric drugs tested
CCN1CCCC1CNC(=O)c1cc(S(=O)(=O)CC)c(NC)cc1OC (stereo not shown) [Compound 102]	0.021	0.0052	–	95	41	270	200	890	490	2.7	0.66	8.4	3.4	11	2.5	increased the difference between novel and familiar object exploration time	able to restore known object exploration behavior in rats treated with PCP to levels similar to untreated rats	statistically superior to that of amisulpride	IC50 (dopamine D2 receptors [6]): 8.9 nM; IC50 (dopamine D2 receptors [7]): 8.2 nM; IC50 (α-2A(h)): 480 nM; Ki (α-2A(h)): 220 nM; IC50 (α-2B(h)): 170 nM; Ki (α-2B(h)): 110 nM; IC50 (α-2C(h)): 790 nM; Ki (α-2C(h)): 240 nM; IC50 (5-HT7): 74 nM; Ki (5-HT7): 27 nM
CCN1CCC[C@H]1CNC(=O)c1cc(S(=O)(=O)CC)c(NC)cc1OC [Compound 103, ((S)-4-methylamino-N-((1-ethyl-2-pyrrolidinyl)methyl)-5-(ethylsulfonyl))-2-methoxybenzamide]	–	–	–	150	6.7	550	410	980	530	1.7	0.41	1.4	0.56	5.5	1.2	increased the difference between novel and familiar object exploration time	able to restore known object exploration behavior in rats treated with PCP to levels similar to untreated rats	statistically indistinguishable from that of amisulpride	–
CC(C)NCC(O)COc1cccc2ccccc12 (stereo not shown) [Promanolol, propanolol]	0.031	7.8	–	–	–	–	–	–	–	–	–	–	–	–	–	–	–	–	–
CNC(=C[N+](=O)[O-])NCCSCc1ccc(CN(C)C)o1 [Ranitidine, ranitidine]	–	–	1.5 × 10^−10 cm/s	–	–	–	–	–	–	–	–	–	–	–	–	–	–	–	Permeability (cm/s) pH 5 ([1]; pH 5): 1.1 × 10^−10 cm/s

Reference: patent US10167256B2, “Psychotrophic agents and uses thereof” (LB PHARMACEUTICALS INC., priority 2016, dated 2019)
